# In patent US20040176349A1, “Antibacterial composition” (priority 2001, published 2004):
# Read-outs that look alike come from different tables or passages of the source.
# What was measured:
# Assay in all cases: Checkerboard microdilution MIC with PFOB, Table 2
# Format in all cases: cell-based
# E. faecalis 5659 (vanA) = conditions: E. faecalis 5659 (vanA); for MIC of partner antibiotic in the presence of PFOB at 0.5 mg/L: PFOB 0.5 mg/L; for MIC of partner antibiotic in the presence of PFOB at 1 mg/L: PFOB 1 mg/L; for MIC of partner antibiotic in the presence of PFOB at 2 mg/L: PFOB 2 mg/L; for MIC of partner antibiotic in the presence of PFOB at 4 mg/L: PFOB 4 mg/L; for MIC of partner antibiotic in the presence of PFOB at 8 mg/L: PFOB 8 mg/L; for MIC of partner antibiotic in the presence of PFOB at 32 mg/L: PFOB 32 mg/L; for MIC: Enterococcus faecalis, partner antibiotic alone, read-out: MIC (alone) of Partner
# Source text: (§1) The aim of the study was to detect any synergy between PFOB and the other antibiotics. For the purposes of the study, synergy was defined in accordance with the FIC (fractional inhibitory concentration) index, as disclosed by Lorian (1991, In “Antibiotics in Laboratory Medicine” 3rd edition, Eds. Williams & Wilkins; esp. p 434-443). In essence, if the combination of test compounds gives at least a 4-fold reduction in the FIC value for each compound, then a synergy may be considered to exist (i.e. FIC of the combination <0.5=synergy; FIC 0.5-2.0=“indifference”; and FIC >2=antagonism).
# (§2) In Table 2, results in the checkerboard indicating synergy are hatched, and specific optimum synergistic combinations are boxed.
# E. faecalis ATCC 29212 = conditions: E. faecalis ATCC 29212; for Synergy FIC: FIC index of PFOB + labelled partner, <0.5 = synergy; for MIC of partner antibiotic in the presence of PFOB at 0.5 mg/L: PFOB 0.5 mg/L; for MIC of partner antibiotic in the presence of PFOB at 1 mg/L: PFOB 1 mg/L; for MIC of partner antibiotic in the presence of PFOB at 2 mg/L: PFOB 2 mg/L; for MIC of partner antibiotic in the presence of PFOB at 4 mg/L: PFOB 4 mg/L; for MIC of partner antibiotic in the presence of PFOB at 8 mg/L: PFOB 8 mg/L; for MIC of partner antibiotic in the presence of PFOB at 16 mg/L: PFOB 16 mg/L; for MIC of partner antibiotic in the presence of PFOB at 32 mg/L: PFOB 32 mg/L; for MIC of PFOB & Partner: Partner concentration: optimum synergistic combination with PFOB, second figure (partner); for MIC: Enterococcus faecalis, ATCC29212, partner antibiotic alone, read-out: MIC (alone) of Partner
# Source text: as §1, §2
# E.faecalis 78097 (van B) = conditions: E.faecalis 78097 (van B); for MIC of partner antibiotic in the presence of PFOB at 0.5 mg/L: PFOB 0.5 mg/L; for MIC of partner antibiotic in the presence of PFOB at 1 mg/L: PFOB 1 mg/L; for MIC of partner antibiotic in the presence of PFOB at 2 mg/L: PFOB 2 mg/L; for MIC of partner antibiotic in the presence of PFOB at 4 mg/L: PFOB 4 mg/L; for MIC of partner antibiotic in the presence of PFOB at 8 mg/L: PFOB 8 mg/L; for MIC of partner antibiotic in the presence of PFOB at 16 mg/L: PFOB 16 mg/L; for MIC of partner antibiotic in the presence of PFOB at 32 mg/L: PFOB 32 mg/L; for MIC: Enterococcus faecalis, partner antibiotic alone, read-out: MIC (alone) of Partner
# Source text: as §1, §2
# E. faecalis ATCC 10541 = conditions: E. faecalis ATCC 10541; for MIC of partner antibiotic in the presence of PFOB at 0.5 mg/L: PFOB 0.5 mg/L; for MIC of partner antibiotic in the presence of PFOB at 1 mg/L: PFOB 1 mg/L; for MIC of partner antibiotic in the presence of PFOB at 2 mg/L: PFOB 2 mg/L; for MIC of partner antibiotic in the presence of PFOB at 4 mg/L: PFOB 4 mg/L; for MIC of partner antibiotic in the presence of PFOB at 8 mg/L: PFOB 8 mg/L; for MIC of partner antibiotic in the presence of PFOB at 16 mg/L: PFOB 16 mg/L; for MIC of partner antibiotic in the presence of PFOB at 32 mg/L: PFOB 32 mg/L; for MIC: Enterococcus faecalis, ATCC10541
# Source text: The aim of the study was to detect any synergy between PFOB and the other antibiotics. For the purposes of the study, synergy was defined in accordance with the FIC (fractional inhibitory concentration) index, as disclosed by Lorian (1991, In “Antibiotics in Laboratory Medicine” 3rd edition, Eds. Williams & Wilkins; esp. p 434-443).
# [1] = FIC index of PFOB + labelled partner, <0.5 = synergy
# [2] = partner antibiotic alone, read-out: MIC (alone) of Partner
MIC of partner antibiotic in the presence of PFOB at 0.5 mg/L (E. faecalis 5659 (vanA)),MIC of partner antibiotic in the presence of PFOB at 1 mg/L (E. faecalis 5659 (vanA)),MIC of partner antibiotic in the presence of PFOB at 2 mg/L (E. faecalis 5659 (vanA)),MIC of partner antibiotic in the presence of PFOB at 4 mg/L (E. faecalis 5659 (vanA)),MIC of partner antibiotic in the presence of PFOB at 8 mg/L (E. faecalis 5659 (vanA)),MIC of partner antibiotic in the presence of PFOB at 32 mg/L (E. faecalis 5659 (vanA)),MIC (E. faecalis 5659 (vanA)),MIC of partner antibiotic in the presence of PFOB at 0.5 mg/L (E. faecalis ATCC 29212),MIC of partner antibiotic in the presence of PFOB at 1 mg/L (E. faecalis ATCC 29212),MIC of partner antibiotic in the presence of PFOB at 2 mg/L (E. faecalis ATCC 29212),MIC of partner antibiotic in the presence of PFOB at 4 mg/L (E. faecalis ATCC 29212),MIC of partner antibiotic in the presence of PFOB at 8 mg/L (E. faecalis ATCC 29212),MIC of partner antibiotic in the presence of PFOB at 16 mg/L (E. faecalis ATCC 29212),MIC of partner antibiotic in the presence of PFOB at 32 mg/L (E. faecalis ATCC 29212),MIC of PFOB & Partner: Partner concentration (E. faecalis ATCC 29212),MIC (E. faecalis ATCC 29212),MIC of partner antibiotic in the presence of PFOB at 0.5 mg/L (E.faecalis 78097 (van B)),MIC of partner antibiotic in the presence of PFOB at 1 mg/L (E.faecalis 78097 (van B)),MIC of partner antibiotic in the presence of PFOB at 2 mg/L (E.faecalis 78097 (van B)),SMILES,Synergy FIC (E. faecalis ATCC 29212),further results
>64 µg/mL,>64 µg/mL,>64 µg/mL,>64 µg/mL,>64 µg/mL,0.5 µg/mL,> 64 µg/mL,>64 µg/mL,>64 µg/mL,32 µg/mL,8 µg/mL,4 µg/mL,1 µg/mL,<0.06 µg/mL,1 µg/mL,32 µg/mL,64 µg/mL,8 µg/mL,8 µg/mL,"CO/N=C(\C(=O)N[C@@H]1C(=O)N2C(C(=O)O)=C(COC(N)=O)CS[C@H]12)c1ccco1 [Cefuroxime, cefuroxime]",0.156,"MIC of partner antibiotic in the presence of PFOB at 16 mg/L (E. faecalis 5659 (vanA); PFOB 16 mg/L): >64 µg/mL; Synergy FIC (E.faecalis 78097 (van B); [1]): 0.07; MIC of partner antibiotic in the presence of PFOB at 4 mg/L (E.faecalis 78097 (van B)): 8 µg/mL; MIC of partner antibiotic in the presence of PFOB at 8 mg/L (E.faecalis 78097 (van B)): 4 µg/mL; MIC of partner antibiotic in the presence of PFOB at 16 mg/L (E.faecalis 78097 (van B)): 1 µg/mL; MIC of partner antibiotic in the presence of PFOB at 32 mg/L (E.faecalis 78097 (van B)): 0.5 µg/mL; MIC of PFOB & Partner: Partner concentration (E.faecalis 78097 (van B); optimum synergistic combination with PFOB, second figure (partner)): 8 µg/mL; MIC (E.faecalis 78097 (van B)): > 64 µg/mL; Synergy FIC (E. faecalis ATCC 10541; [1]): 0.067; MIC of partner antibiotic in the presence of PFOB at 0.5 mg/L (E. faecalis ATCC 10541): >64 µg/mL; MIC of partner antibiotic in the presence of PFOB at 1 mg/L (E. faecalis ATCC 10541): >64 µg/mL; MIC of partner antibiotic in the presence of PFOB at 2 mg/L (E. faecalis ATCC 10541): >64 µg/mL; MIC of partner antibiotic in the presence of PFOB at 4 mg/L (E. faecalis ATCC 10541): 8 µg/mL; MIC of partner antibiotic in the presence of PFOB at 8 mg/L (E. faecalis ATCC 10541): 0.5 µg/mL; MIC of partner antibiotic in the presence of PFOB at 16 mg/L (E. faecalis ATCC 10541): <0.06 µg/mL; MIC of partner antibiotic in the presence of PFOB at 32 mg/L (E. faecalis ATCC 10541): <0.06 µg/mL; MIC (E. faecalis ATCC 10541; optimum synergistic combination of PFOB with the labelled partner, first figure (PFOB), read-out: MIC of PFOB & Partner: PFOB concentration): 8 µg/mL; MIC (E. faecalis ATCC 10541; optimum synergistic combination with PFOB, second figure (partner), read-out: MIC of PFOB & Partner: Partner concentration): 0.5 µg/mL; MIC (E. faecalis ATCC 10541; [2]): > 64 µg/mL"
1 µg/mL,1 µg/mL,1 µg/mL,1 µg/mL,1 µg/mL,0.25 µg/mL,0.25 µg/mL,0.5 µg/mL,0.5 µg/mL,0.5 µg/mL,0.25 µg/mL,0.125 µg/mL,0.125 µg/mL,<0.03 µg/mL,0.12 µg/mL,0.5 µg/mL,1 µg/mL,1 µg/mL,1 µg/mL,"C[C@@H](O)[C@H]1C(=O)N2C(C(=O)O)=C(SCCN=CN)C[C@H]12 [Imipenem, imipenem]",0.375,MIC of partner antibiotic in the presence of PFOB at 4 mg/L (E.faecalis 78097 (van B)): 1 µg/mL; MIC of partner antibiotic in the presence of PFOB at 8 mg/L (E.faecalis 78097 (van B)): 1 µg/mL; MIC of partner antibiotic in the presence of PFOB at 16 mg/L (E.faecalis 78097 (van B)): 1 µg/mL; MIC of partner antibiotic in the presence of PFOB at 32 mg/L (E.faecalis 78097 (van B)): 1 µg/mL; MIC (E.faecalis 78097 (van B)): 0.5 µg/mL; MIC of partner antibiotic in the presence of PFOB at 0.5 mg/L (E. faecalis ATCC 10541): 1 µg/mL; MIC of partner antibiotic in the presence of PFOB at 1 mg/L (E. faecalis ATCC 10541): 1 µg/mL; MIC of partner antibiotic in the presence of PFOB at 2 mg/L (E. faecalis ATCC 10541): 1 µg/mL; MIC of partner antibiotic in the presence of PFOB at 4 mg/L (E. faecalis ATCC 10541): 1 µg/mL; MIC of partner antibiotic in the presence of PFOB at 8 mg/L (E. faecalis ATCC 10541): 0.25 µg/mL; MIC of partner antibiotic in the presence of PFOB at 16 mg/L (E. faecalis ATCC 10541): 0.125 µg/mL; MIC of partner antibiotic in the presence of PFOB at 32 mg/L (E. faecalis ATCC 10541): <0.03 µg/mL; MIC (E. faecalis ATCC 10541; [2]): 1 µg/mL
